Data set [1] has as its target T1, Leishmania infantum TR (LiTR) (Leishmania infantum, UniProt A4HSF7).
T1 construct: The TbTR and LiTR genes were subcloned in a pET28b vector; 6-His (cleaved yes); made in house; host or cells: E. coli BL21(DE3), pET28b
The data set can be described thus: LiTR inhibition kinetics, Ki from Dixon plots. In kind it is biochemical. To be noted: for mode of inhibition of LiTR: Dixon plots; for Ki: graphically determined from Dixon plots. How it is done:
Enzymatic inhibition assays were performed in 50 mM HEPES pH 7.4, 40 mM NaCl at 25 °C using a JASCO V650 spectrophotometer equipped with a JASCO EHC 716 Peltier element to ensure controlled temperature. The first experiment was carried out using 50 nM LiTR, 10 or 100 μM compound to be tested, 150 μM trypanothione (trypanothione disulfide purchased from Bachem), and 100 μM NADPH (tetrasodium salt, purchased from Calbiochem). The best inhibitor candidates were then tested at concentrations ranging from 1 nM to 250 μM to determine the IC50. Assays were initiated upon addition of 100 μM NADPH to 50 nM LiTR or hGR (human glutathione reductase purchased from Sigma-Aldrich) in the presence of different concentration of compounds and 150 μM trypanothione. For both experiments, the oxidation of NADPH was followed as a decrease in absorbance at 340 nm. For each concentration of compound, the initial velocity of the NADPH oxidation was used to determine the percentage of LiTR activity with respect to that in the absence of any compound. The IC50 was determined upon fitting the residual activity of TR as a dose–response logistic equation defined as ymin + (ymax – ymin)/(1 + (x/IC50)^slope). […] The Ki was determined graphically upon linear fitting of data points for each trypanothione concentration. Data analysis was performed with QtiPlot 0.9.8.9 svn 2288, and graphs were made with Matplotlib. […]
assays were carried out at 25°C on a JASCO V650 spectrophotometer equipped with a JASCO EHC716 Peltier unit. Compound concentrations range from 1 to 6 µM. Briefly, 50 nM LiTR were mixed in 50 mM HEPES pH 7.4, 40 mM NaCl with each compound and various concentrations of trypanothione (reported on the figure). After 3-minute incubation at 25°C, the measurement was initiated upon addition of 100 µM NADPH. The oxidation of NADPH was followed as a decrease in absorbance at 340 nm. The inverse of the initial velocity of LiTR enzymatic reaction was reported as a function of the compound concentration. The intersection of the linear fitting of data at different trypanothione concentration provides a graphical determination of the inhibition constant K i. Each data point is the mean of three measurements.
(1 picture or pasted object on this page, not shown here)

The nature of data set [2]: Cytotoxicity assay on primary murine macrophages (MTT). In kind it is cell-based, Balb/c mice. To be noted: Balb/c, mouse, primary peritoneal exudate macrophages, read-out: primary murine macrophage CC50 ± SE (95% CI). How it is done: To assess the cytotoxicity of compounds on mammalian macrophages, we tested all the compounds against both human leukemia monocyte cell line (THP-1 cells, ATCC) differentiated into macrophages by treatment with 40 ng/mL of phorbol myristate acetate (PMA; Sigma) for 48 h and peritoneal exudate macrophages harvested from Balb/c mice. […] Cell viability was evaluated using the MTT assay, and the concentration of the compound that produced a 50% reduction of cell viability in treated culture cells with respect to untreated ones (CC50) was determined by GraphPad Prism 5.0 (GraphPad Software Inc., San Diego, USA). […] The selectivity index for each compound was calculated as the ratio of cytotoxicity (CC50) in macrophages cells to activity (IC50) against Leishmania axenic amastigotes. The experiments were performed in triplicate, and two independent experiments were conducted.

For data set [3], the system named is L. infantum intramacrophage amastigotes. The data set can be described thus: Ex vivo inhibition of intramacrophage amastigote growth. In kind it is cell-based, Leishmania infantum. As to conditions: for EC50: 72 h, murine macrophages infected with L. infantum amastigotes, read-out: intramacrophage amastigote EC50 ± SE (95% CI). How it is done:
Balb/c murine macrophages were used to perform ex vivo assay since the parasites infect them more effectively. Macrophages (5 × 10^5/well) were placed on glass coverslips within a 24-well culture plate and incubated with complete RPMI in a 5% CO2 incubator at 37 °C for 4 h to achieve cell adhesion. After this time, L. infantum amastigotes from spleens of previously infected hamsters were added onto the macrophages adhering to the coverslips at the ratio of 10:1 (parasites/macrophages). After 24 h of infection, the noninternalized amastigotes were removed by washes with RPMI. The infected macrophages were incubated with complete RPMI medium (control) or medium containing different concentrations of compounds in a 5% CO2 incubator at 37 °C for 72 h. Then, the coverslips were fixed with methanol, stained with Giemsa 10%, and analyzed by optical microscopy. The percentage of the infected macrophages and the number of amastigotes per infected macrophage were determined by random counting of 100 cells in each coverslip. Infection was judged to be adequate if more than 70% of the macrophages in the untreated control were infected. Activity for each compound was expressed as percentage of parasite burden reduction = infectivity index of treated cells/infectivity index of untreated cells. The infectivity index was calculated as follows: number of infected macrophages × mean number of amastigotes per macrophage / total number of macrophages. Nonlinear regression analysis (Graph-Pad Software Inc., San Diego, USA) was used for curve fitting and calculation of 50% inhibitory concentrations (IC50). The experiments were performed in triplicate, and two independent experiments were conducted.

Where two headings read alike, the source gives them in different places.

T1 sequence (A4HSF7 1-491): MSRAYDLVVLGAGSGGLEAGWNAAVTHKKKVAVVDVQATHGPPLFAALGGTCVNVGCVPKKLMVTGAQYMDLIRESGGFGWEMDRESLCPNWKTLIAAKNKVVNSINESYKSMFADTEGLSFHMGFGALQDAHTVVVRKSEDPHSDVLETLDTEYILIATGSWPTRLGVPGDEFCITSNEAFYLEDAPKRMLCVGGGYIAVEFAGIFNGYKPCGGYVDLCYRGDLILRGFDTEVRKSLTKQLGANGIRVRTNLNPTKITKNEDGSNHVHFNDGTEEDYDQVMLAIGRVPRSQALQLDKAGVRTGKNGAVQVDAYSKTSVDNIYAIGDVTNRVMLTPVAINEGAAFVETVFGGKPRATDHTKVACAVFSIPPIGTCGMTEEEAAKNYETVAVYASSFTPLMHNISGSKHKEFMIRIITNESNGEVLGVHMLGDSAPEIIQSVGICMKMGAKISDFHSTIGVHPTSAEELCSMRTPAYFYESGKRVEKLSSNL

As a reminder, the Ki is the dissociation constant of the complex between target and ligand, obtained from inhibition or displacement. Low values mean a stronger hold on the target, high ones a looser hold on the target. Usually CC50 stands for the concentration giving 50% cytotoxicity. Turning to `O=C(NCCc1ccc(F)cc1)c1ccc(CNC(=O)N2CC[N+](CCCc3ccccc3)(Cc3ccc(Cl)c(Cl)c3)CC2)o1.[I-]` [Compound 14, 1-(3,4-Dichlorobenzyl)-4-(((5-((4-fluorophenethyl)carbamoyl)furan-2-yl)methyl)carbamoyl)-1-(3-phenylpropyl)piperazin-1-ium Iodide], in data set [1], the “mode of inhibition of LiTR” value is listed as “linear competitive inhibition” and the Ki came out at 0.8 ± 0.2 µM. Besides, the CC50 at 72 h in data set [2] came to 12.7 ± 0.9 µM. Further, the intramacrophage amastigote reduction in data set [3] (at 12.5 μM) is given as 40% of reduction at 12.5 μM.

By EC50 is commonly meant the concentration needed to bring the measured effect to its halfway point. As for `C[N+]1(CCCc2ccccc2)CCN(C(=O)N(Cc2ccc(C(=O)NCCc3ccc(F)cc3)o2)c2ccc(F)cc2)CC1.[I-]` [Compound 9, 4-(((5-((4-Fluorophenethyl)carbamoyl)furan-2-yl)methyl)(4-fluorophenyl)carbamoyl)-1-methyl-1-(3-phenylpropyl)piperazin-1-ium Iodide], in data set [1], the “mode of inhibition of LiTR” value is on record as “linear competitive inhibition” and the Ki amounted to 5.5 ± 0.2 µM. Moreover, the CC50 at 72 h in data set [2] is 29.9 ± 4.2 µM. For the same compound, the concentration giving a half-maximal response (EC50) in data set [3] (Leishmania infantum, Macrophage, in Mus musculus) came out at 15.3 µM. Moreover, the EC50 in data set [3] came to 15.3 ± 2.3 µM.

`O=C(NCCc1ccc(F)cc1)c1ccc(CN(C(=O)N2CC[N+](CCCc3ccccc3)(Cc3ccc(Cl)c(Cl)c3)CC2)c2ccc(F)cc2)o1.[I-]` [Compound 10, 1-(3,4-Dichlorobenzyl)-4-(((5-((4-fluorophenethyl)carbamoyl)furan-2-yl)methyl)(4-fluorophenyl)carbamoyl)-1-(3-phenylpropyl)piperazin-1-ium Iodide]: in data set [1], the “mode of inhibition of LiTR” value is listed as “linear competitive inhibition” and the Ki was 0.2 µM. The CC50 at 72 h in data set [2] stood at 12.5 ± 0.8 µM.
